A short description of data set [1]: fragmentation rate constant kfr by laser flash photolysis. Format: physicochemical. As to conditions: Table H; model compound, A and L replaced by alkyl. From the text: The kinetics of the bond cleavage or fragmentation reaction can be measured by conventional laser flash photolysis. […] The specific experimental apparatus we used to measure fragmentation rate constants and radical oxidation potentials is described in detail below.
(b) Fragmentation Rate Constant Determination
These absorptions were used to determine the kinetics of the fragmentation reactions of the radical cations of the X-Y. Excitation of 9,10-dicyanoanthracene (DCA) in the presence of biphenyl and the X-Y donor, as described above, results in the formation of the DCA^.cndot.- and the X-Y^.cndot.+. By using a concentration of X-Y of ca. 10^-2 M, the X-Y^.cndot.+ can be formed within ca. 20 ns of the laser pulse. […] The monitoring wavelengths used were somewhat different for the different donors, but were mostly around 470-530 nm. […] Alternatively, when the decay rate of the X-Y^.cndot.+ was less than 10^6 s^-1, the solutions were purged with oxygen.
The experiments measuring the fragmentation rate constants were performed in acetonitrile with the addition of 20% water, so that all of the salts could be easily solubilized. Most experiments were performed at room temperature. […] When this happened, the fragmentation rate constants were measured as a function of temperature, and the rate constant at room temperature determined by extrapolation.

Data set [2] can be described thus: oxidation potential E2 of radical X by laser flash photolysis. Format: physicochemical. As to conditions: Table H; model compound, A and L replaced by alkyl. From the text: In this technique, the compound X-Y is oxidized by an electron transfer reaction initiated by a short laser pulse. The oxidized form of X-Y then undergoes the bond cleavage reaction to give the radical X^.cndot.. X^.cndot. is then allowed to interact with various electron acceptor compounds of known reduction potential. […] The experimental details are set forth more fully below. The oxidation potentials (E2) for radicals X^.cndot. for typical compounds useful in accordance with our invention are given in Table C. Where only limits on potentials could be determined, the following notation is used: <-0.90 V should be read as "more negative than -0.90 V" and >-0.40 V should be read as "less negative than -0.40 V".
(a) Oxidation Potential of Radical X.cndot.
The laser flash photolysis measurements were performed using a nanosecond pulsed excimer (Questek model 2620, 308 nm, ca. 20 ns, ca. 100 mJ) pumped dye laser (Lambda Physik model FL 3002). The laser dye was DPS (commercially available from Exciton Co.) in p-dioxane (410 nm, ca. 20 ns, ca. 10 mJ). The analyzing light source was a pulsed 150W xenon arc lamp (Osram XBO 150/W). The arc lamp power supply was a PRA model 302 and the pulser was a PRA model M-306. The pulser increased the light output by ca. 100 fold, for a time period of ca. 2-3 ms. The analyzing light was focussed through a small aperture (ca. 1.5 mm) in a cell holder designed to hold 1 cm^2 cuvettes. The laser and analyzing beams irradiated the cell from opposite directions and crossed at a narrow angle (ca. 15°). After leaving the cell, the analyzing light was collimated and focussed onto the slit (1 mm, 4 nm bandpass) of an ISA H-20 monochromator. The light was detected using 5 dynodes of a Hamamatsu model R446 photomultiplier. The output of the photomultiplier tube was terminated into 50 ohm, and captured using a Tektronix DSA-602 digital oscilloscope. The entire experiment is controlled from a personal computer.
The experiments were performed either in acetonitrile, or a mixture of 80% acetonitrile and 20% water. The first singlet excited state of a cyanoanthracene (A), which acted as the electron acceptor, was produced using the nanosecond laser pulse at 410 nm. […] Secondary electron transfer then occurred between B^.cndot.+ and the lower oxidation potential electron donor X-Y, to generate X-Y^.cndot.+ in high yield. For the investigations of the oxidation potentials of the radicals X^.cndot., typically the cyanoanthrancene concentration was ca. 2×10^-5 M to 10^-4 M the biphenyl concentration was ca. 0.1M. The concentration of the X-Y donor was ca. 10^-3 M. The rates of the electron transfer reactions are determined by the concentrations of the substrates. The concentrations used ensured that the A^.cndot.- and the X-Y^.cndot.+ were generated within 100 ns of the laser pulse. The radical ions could be observed directly by means of their visible absorption spectra. The kinetics of the photogenerated radical ions were monitored by observation of the changes in optical density at the appropriate wavelengths.
The reduction potential (Ered) of 9,10-dicyanoanthracene (DCA) is -0.91 V. In a typical experiment, DCA is excited and the initial photo-induced electron transfer from the biphenyl (B) to the DCA forms a DCA^.cndot.-, which is observed at its characteristic absorption maximum (λobs =705 nm), within ca. 20 ns of the laser pulse. Rapid secondary electron transfer occurs from X-Y to B^.cndot.+ to generate X-Y^.cndot.+, which fragments to give X^.cndot.. A growth in absorption is then observed at 705 nm with a time constant of ca. 1 microsecond, due to reduction of a second DCA by the X^.cndot.. The absorption signal with the microsecond growth time is equal to the size of the absorption signal formed within 20 ns.
If the oxidation potential of X^.cndot. is not sufficiently negative to reduce DCA, an estimate of its oxidation potential was obtained by using other cyanoanthracenes as acceptors. […]

The nature of data set [3]: oxidation potential E1 by cyclic voltammetry. The format is physicochemical. As to conditions: for E1 (V) for XY moiety: Table H, model compound, A and L replaced by alkyl; for E1 (V): Table V. Here is the method:
Oxidation potentials are well known and can be found, for example, in "Encyclopedia of Electrochemistry of the Elements", Organic Section, Volumes XI-XV, A. Bard and H. Lund (Editors) Marcel Dekker Inc., NY. (1984). E1 can be measured by the technique of cyclic voltammetry. In this technique, the electron donating compound is dissolved in a solution of 80%/20% by volume acetonitrile to water containing 0.1M lithium perchlorate. Oxygen is removed from the solution by passing nitrogen gas through the solution for 10 minutes prior to measurement. A glassy carbon disk is used for the working electrode, a platinum wire is used for the counter electrode, and a saturated calomel electrode (SCE) is used for the reference electrode. Measurement is conducted at 25° C. using a potential sweep rate of 0.1 V/sec. The oxidation potential vs. SCE is taken as the peak potential of the cyclic voltammetric wave.

A short description of data set [4]: Example 5: photographic speed and fog, 365 nm exposure, fragmenting vs non-fragmenting one-electron donors, emulsion T-2. Set-up: Fog: unit not given here. As to conditions: for sensitivity and fog change: undyed T-2 emulsion. As for the experimental part:
(§1) For photographic evaluation, each of the coating strips was exposed for 0.1 sec to a 365 nm emission line of a Hg lamp filtered through a Kodak Wratten filter number 18A and a step wedge ranging in density from 0 to 4 density units in 0.2 density steps. The exposed film strips were developed for 6 min in Kodak Rapid X-ray Developer (KRX). S365, relative sensitivity at 365 nm, was evaluated at a density of 0.2 units above fog.
An AgBrI tabular silver halide emulsion (Emulsion T-2) was prepared containing 4.05% total I distributed such that the central portion of the emulsion grains contained 1.5% I and the perimeter area contained substantially higher I, as described by Chang et. al., U.S. Pat. No. 5,314,793. […] This emulsion was precipitated using deionized gelatin. The emulsion was sulfur sensitized by adding 8.5×10^-6 mole 1,3-dicarboxymethyl-1,3-dimethyl-2-thiourea /mole Ag at 40° C.; the temperature was then raised to 60° C. at a rate of 5° C./3 min and the emulsions held for 20 min before cooling to 40° C. The chemically sensitized emulsion was then used to prepare coatings containing the fragmentable two-electron donor compounds. […] Where present, the blue sensitizing dye D-I or the red sensitizing dye D-II were added from methanol solution to the emulsion at 40° C. after the chemical sensitization and disulfocatechol addition. The fragmentable two-electron donor compounds were added to the emulsion at 40° C. and the coatings were prepared and tested as described in Example 1, except that the additional gelatin used to prepare the coatings described in Table III was deionized gelatin.
Where present, the sensitizing dye D-II was added from methanol solution to the emulsion at 40° C. after the chemical sensitization but before the addition of the one-electron donating compound. The coatings were tested for their response to a 365 nm exposure as described in Example 1. For this exposure, the relative sensitivity was set equal to 100 for the control coating with no one-electron donating compound added.

Data set [5] can be described thus: Example 9: photographic speed and fog, 365 nm exposure, red dyed emulsion T-2. Conditions: for Fog / S365: dye II 0.86 x10^-3; for S365: undyed control=100, dyed control 62. As for the experimental part:
as §1
An AgBrI tabular silver halide emulsion (Emulsion T-2) was prepared containing 4.05% total I distributed such that the central portion of the emulsion grains contained 1.5% I and the perimeter area contained substantially higher I, as described by Chang et. al., U.S. Pat. No. 5,314,793. […] This emulsion was precipitated using deionized gelatin. The emulsion was sulfur sensitized by adding 8.5×10^-6 mole 1,3-dicarboxymethyl-1,3-dimethyl-2-thiourea /mole Ag at 40° C.; the temperature was then raised to 60° C. at a rate of 5° C./3 min and the emulsions held for 20 min before cooling to 40° C. The chemically sensitized emulsion was then used to prepare coatings containing the fragmentable two-electron donor compounds. All of the experimental coating variations in Table III contained the hydroxybenzene 2,4-disulfocatechol (HB3) at a concentration of 13 mmole/ mole Ag, added to the melt before the addition of any further addenda. Where present, the blue sensitizing dye D-I or the red sensitizing dye D-II were added from methanol solution to the emulsion at 40° C. after the chemical sensitization and disulfocatechol addition. The fragmentable two-electron donor compounds were added to the emulsion at 40° C. and the coatings were prepared and tested as described in Example 1, except that the additional gelatin used to prepare the coatings described in Table III was deionized gelatin.
The sulfur sensitized AgBrI tabular emulsion T-2 as described in Example 3 was used to prepare coatings of the fragmentable two-electron donors S-15, S-14, S-13, and S-11, as described in Table IX. All of the experimental coating variations in Table IX contained the hydroxybenzene, 2,4-disulfocatechcol (HB3) at a concentration of 13 mmole/mole Ag, added to the melt before any further addenda. Where present, the red sensitizing dye D-II was added from methanol solution to the emulsion at 40° C. after the chemical sensitization and disulfocatechol addition. The fragmentable two-electron donor compounds were then added to the emulsion and coatings prepared and tested as described in Example I, except that the additional gelatin used to prepare the coatings described in Table IX was deionized gelatin.

Setting [6] is: 0.044 x10^-3 mole/mole Ag, dye D-II 0.86 x10^-3.
The mark [7] stands for this setting: 0.044 x10^-3 mole/mole Ag, dye D-II 0.86 x10^-3, dyed control 69.
Where [8] appears, read: 0.044 x10^-3 mole/mole Ag, no dye, no HB3.
Setting [9] is: 0.044 x10^-3 mole/mole Ag, no dye, no HB3, control=100.
[10] abbreviates: 0.14 x10^-3 mole/mole Ag, dye D-II 0.86 x10^-3.
Setting [11] is: 0.14 x10^-3 mole/mole Ag, dye D-II 0.86 x10^-3, dyed control 69.
[12] abbreviates: 0.14 x10^-3 mole/mole Ag, no dye, no HB3.
Where [13] appears, read: 0.14 x10^-3 mole/mole Ag, no dye, no HB3, control=100.

For the compound `CCSCCN(CCSCC)c1ccc(CC(=O)O)cc1` [Compound S-17, Sodium 2-(4-N,N-bis(ethylthioethyl)aminophenyl)acetate], in data set [1], the “kfr (s^-1) for XY moiety” value is on record as “≈ 3 × 10^5 s^-1”. Further, in data set [2], the “E2 (V) for XY moiety” value is on record as below -0.5 V. In addition, the “E1 (V) for XY moiety” value in data set [3] amounted to 0.57 V. The “E1 (V)” value in data set [3] is recorded as 0.62 V. The Fog in data set [4] (setting [6]) turned out to be 0.11; in data set [4] (setting [8]) it was 0.05; in data set [4] (setting [10]), 0.11; in data set [4] (setting [12]), 0.06. Besides, the S365 amounted to 80 in data set [4] (setting [7]), 110 in data set [4] (setting [9]), 89 in data set [4] (setting [11]) and 120 in data set [4] (setting [13]). Moreover, the “sensitivity and fog change” value in data set [4] is on record as “increased the 365 nm sensitivity of the undyed emulsion”.
For `CCSCCNC(=O)CCN(CC)c1ccc(CC(=O)O)cc1` [Compound S-18], the “kfr (s^-1) for XY moiety” value in data set [1] was “≈ 3 × 10^5 s^-1”. The “E2 (V) for XY moiety” value in data set [2] is given as below -0.5 V. Further, in data set [3], the “E1 (V) for XY moiety” value came out at 0.57 V. In data set [3], the “E1 (V)” value is 0.68 V. The Fog in data set [4] (setting [6]) was determined as 0.05; in data set [4] (setting [8]), 0.05; in data set [4] (setting [10]), 0.06; in data set [4] (setting [12]), 0.06. Further, the S365 in data set [4] (setting [7]) was found to be 95; in data set [4] (setting [9]), 135; in data set [4] (setting [11]), 107; in data set [4] (setting [13]) it was 148. Further, in data set [4], the “sensitivity and fog change” value is listed as “increased the 365 nm sensitivity of the undyed emulsion”.
In data set [5] (0.007 x10^-3 mol/mol Ag), “N-(4-Carboxyethylphenyl)-N-(2-thioethyl-ethyl)alanine sodium salt [Compound S-15]” returned a Fog of 0.13 and an S365 of 95. Moreover, in data set [5] (0.022 x10^-3 mol/mol Ag), the Fog is given as 0.23 and the S365 was 105. Moreover, the “365 nm sensitivity of dyed emulsion” value in data set [5] (dye D-II) was “restored to that of the undyed emulsion”.

Source of the values: US5747235A, “Silver halide light sensitive emulsion layer having enhanced photographic sensitivity” (Eastman Kodak Company, priority 1996, dated 1998).
